ChEMBL document CHEMBL3885881, “DrugMatrix”

Species: Rattus norvegicus
Test: DrugMatrix - Regimen: Daily Repeat
Format: toxicity, organism-based, Sprague-Dawley
Parameters: regimen Daily Repeat, gender Male, age 6-8 weeks
Details: in vivo, po, route oral GAVAGE, vehicle 100 % WATER; for ABSOLUTE BASOPHIL / ABSOLUTE EOSINOPHIL / ABSOLUTE LYMPHOCYTE / ABSOLUTE MONOCYTE / ABSOLUTE SEGMENTED NEUTROPHIL / BASOPHIL / EOSINOPHIL / ERYTHROCYTE COUNT / HEMATOCRIT / HEMOGLOBIN / LEUKOCYTE COUNT / LYMPHOCYTE / MEAN CORPUSCULAR HEMOGLOBIN / MEAN CORPUSCULAR HEMOGLOBIN CONCENTRATION / NEUTROPHIL / NUCLEATED RED BLOOD CELLS / PLATELET COUNT: tissue Blood; for ALANINE AMINOTRANSFERASE / ALBUMIN / ALKALINE PHOSPHATASE / ASPARTATE AMINOTRANSFERASE / BLOOD UREA NITROGEN / CARBON DIOXIDE / CHLORIDE / CHOLESTEROL / CREATINE PHOSPHOKINASE / CREATININE / GLUCOSE / LACTATE DEHYDROGENASE / LIPASE / PHOSPHORUS / POTASSIUM / SODIUM / TOTAL BILIRUBIN / TOTAL PROTEIN / URIC ACID: tissue Plasma
[1] = 94 mg/kg, 120 h, dose level High, time 5 day
[2] = […], 72 h, dose 2.3 mg/Kg, dose level Low, time 3 day
[3] = […], 120 h, dose 2.3 mg/Kg, dose level Low, time 5 day

CN1[C@@H]2CC[C@H]1C[C@@H](OC(=O)C(CO)c1ccccc1)C2 (stereo partly drawn) [ATROPINE]
ABSOLUTE BASOPHIL [1]: 0 CELLS/uL
ABSOLUTE EOSINOPHIL [1]: 26.33 CELLS/uL
ABSOLUTE LYMPHOCYTE [1]: 8136 CELLS/uL
ABSOLUTE MONOCYTE [1]: 82.33 CELLS/uL
ABSOLUTE SEGMENTED NEUTROPHIL [1]: 555.33 CELLS/uL
BASOPHIL [1]: 0%
EOSINOPHIL [1]: 0.33%
ERYTHROCYTE COUNT [1]: 5.33 x10E6/uL
HEMATOCRIT [1]: 35.2%
HEMOGLOBIN [1]: 13.4 G/DL
LEUKOCYTE COUNT [1]: 8.8 x10E3/uL
LYMPHOCYTE [1]: 92.33%
MEAN CORPUSCULAR HEMOGLOBIN [1]: 25.13 pg
MEAN CORPUSCULAR HEMOGLOBIN CONCENTRATION [1]: 38.07 G/DL
NEUTROPHIL [1]: 6.33%
NUCLEATED RED BLOOD CELLS [1]: 0.33 /100WBC
PLATELET COUNT [1]: 1133.67 x10E3/uL
ALANINE AMINOTRANSFERASE [1]: 73.67 u/L
ALBUMIN [1]: 4.13 G/DL
ALKALINE PHOSPHATASE [1]: 335 u/L
ASPARTATE AMINOTRANSFERASE [1]: 106.67 u/L
BLOOD UREA NITROGEN [1]: 13 mg/dL
CARBON DIOXIDE [1]: 32 mmol/L
CHLORIDE [1]: 99.67 MEQ/L
CHOLESTEROL [1]: 52.33 mg/dL
CREATINE PHOSPHOKINASE [1]: 367.67 u/L
CREATININE [1]: 0.1 mg/dL
GLUCOSE [1]: 155 mg/dL
LACTATE DEHYDROGENASE [1]: 214.33 u/L
LIPASE [1]: 11 u/L
PHOSPHORUS [1]: 9.67 mg/dL
POTASSIUM [1]: 5.56 MEQ/L
SODIUM [1]: 143.2 MEQ/L
TOTAL BILIRUBIN [1]: 0.17 mg/dL
TOTAL PROTEIN [1]: 6.03 G/DL
URIC ACID [1]: 0.37 mg/dL
ABSOLUTE BASOPHIL [2]: 0 CELLS/uL
ABSOLUTE EOSINOPHIL [2]: 0 CELLS/uL
ABSOLUTE LYMPHOCYTE [2]: 12169.33 CELLS/uL
ABSOLUTE MONOCYTE [2]: 203.67 CELLS/uL
ABSOLUTE SEGMENTED NEUTROPHIL [2]: 1660.33 CELLS/uL
BASOPHIL [2]: 0%
EOSINOPHIL [2]: 0%
ERYTHROCYTE COUNT [2]: 5.43 x10E6/uL
HEMATOCRIT [2]: 34.63%
HEMOGLOBIN [2]: 13.57 G/DL
LEUKOCYTE COUNT [2]: 14.03 x10E3/uL
LYMPHOCYTE [2]: 88%
MEAN CORPUSCULAR HEMOGLOBIN [2]: 25 pg
MEAN CORPUSCULAR HEMOGLOBIN CONCENTRATION [2]: 39.17 G/DL
NEUTROPHIL [2]: 10.67%
NUCLEATED RED BLOOD CELLS [2]: 0 /100WBC
PLATELET COUNT [2]: 1077.33 x10E3/uL
ALANINE AMINOTRANSFERASE [2]: 49 u/L
ALBUMIN [2]: 3.93 G/DL
ALKALINE PHOSPHATASE [2]: 305.33 u/L
ASPARTATE AMINOTRANSFERASE [2]: 82.67 u/L
BLOOD UREA NITROGEN [2]: 10.67 mg/dL
CARBON DIOXIDE [2]: 28.67 mmol/L
CHLORIDE [2]: 99.33 MEQ/L
CHOLESTEROL [2]: 68.67 mg/dL
CREATINE PHOSPHOKINASE [2]: 256.67 u/L
CREATININE [2]: 0.1 mg/dL
GLUCOSE [2]: 142.67 mg/dL
LACTATE DEHYDROGENASE [2]: 161 u/L
LIPASE [2]: 9.33 u/L
PHOSPHORUS [2]: 10.27 mg/dL
POTASSIUM [2]: 6.48 MEQ/L
SODIUM [2]: 141.6 MEQ/L
TOTAL BILIRUBIN [2]: 0.27 mg/dL
TOTAL PROTEIN [2]: 5.63 G/DL
URIC ACID [2]: 0.97 mg/dL
ABSOLUTE BASOPHIL [3]: 0 CELLS/uL
ABSOLUTE EOSINOPHIL [3]: 0 CELLS/uL
ABSOLUTE LYMPHOCYTE [3]: 8930.67 CELLS/uL
ABSOLUTE MONOCYTE [3]: 135.33 CELLS/uL
ABSOLUTE SEGMENTED NEUTROPHIL [3]: 600.67 CELLS/uL
BASOPHIL [3]: 0%
EOSINOPHIL [3]: 0%
ERYTHROCYTE COUNT [3]: 5.39 x10E6/uL
HEMATOCRIT [3]: 35.13%
HEMOGLOBIN [3]: 13.5 G/DL
LEUKOCYTE COUNT [3]: 9.67 x10E3/uL
LYMPHOCYTE [3]: 93%
MEAN CORPUSCULAR HEMOGLOBIN [3]: 25.07 pg
MEAN CORPUSCULAR HEMOGLOBIN CONCENTRATION [3]: 38.43 G/DL
NEUTROPHIL [3]: 6%
NUCLEATED RED BLOOD CELLS [3]: 0 /100WBC
PLATELET COUNT [3]: 1298.67 x10E3/uL
ALANINE AMINOTRANSFERASE [3]: 55.33 u/L
ALBUMIN [3]: 4.07 G/DL
ALKALINE PHOSPHATASE [3]: 274 u/L
ASPARTATE AMINOTRANSFERASE [3]: 83 u/L
BLOOD UREA NITROGEN [3]: 13.67 mg/dL
CARBON DIOXIDE [3]: 34.67 mmol/L
CHLORIDE [3]: 98.33 MEQ/L
CHOLESTEROL [3]: 64.67 mg/dL
CREATINE PHOSPHOKINASE [3]: 318.67 u/L
CREATININE [3]: 0.12 mg/dL
GLUCOSE [3]: 137.67 mg/dL
LACTATE DEHYDROGENASE [3]: 169.67 u/L
LIPASE [3]: 12.33 u/L
PHOSPHORUS [3]: 10 mg/dL
POTASSIUM [3]: 5.77 MEQ/L
SODIUM [3]: 144.13 MEQ/L
TOTAL BILIRUBIN [3]: 0.2 mg/dL
TOTAL PROTEIN [3]: 6.23 G/DL
URIC ACID [3]: 0.37 mg/dL
